# From patent US9018208B2, “Heterocycles as potassium channel modulators” (Icagen Inc., priority 2007, dated 2015)
# Test system: SH-SY5Y M-currents (KCNQ2, KCNQ3 and KCNQ5)
# Assay: SH-SY5Y native cell line FLIPR assay (voltage-sensitive dye DiBAC)
# Assay type: cell-based, mouse neuroblastoma, rat glioma hybrid cell line
# Settings: FLIPR assay, SH-SY5Y native cell line; Table 2; read-out: SH-SY5Y EC50
# In short: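 Response is peak DiBAC fluorescence change, normalised to the maximum from a positive control agent, sampled every 30 s over 25 min. Before compound addition, SH-SY5Y cells differentiated with PGE1 plus isomethylbutylxanthine were dye-loaded for 1 h in EBSS with […] DiBAC.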
row,SMILES,EC50 [nM]
1,"O=C(Cc1ccccc1)Nc1nc2ccc(F)cn2c1-c1ccc(F)c(F)c1 [Compound 211, N-(3-(3,4-difluorophenyl)-6-fluoroimidazo[1,2-a]pyridin-2-yl)-2-phenylacetamide]",< 500
2,"CC(C)(C)CC(=O)Nc1nc2ccc(F)cn2c1-c1ccc(F)c(F)c1 [Compound 212, N-(3-(3,4-difluorophenyl)-6-fluoroimidazo[1,2-a]pyridin-2-yl)-3,3-dimethylbutanamide]",< 500
3,"O=C(NCCc1ccc(F)cc1)Nc1nc2ccc(F)cn2c1-c1ccc(C(F)(F)F)cc1 [Compound 213, 1-(6-fluoro-3-(4-(trifluoromethyl)phenyl)imidazo[1,2-a]pyridin-2-yl)-3-(4-fluorophenethyl)urea]",3000 to 10000
4,"O=C(NCc1ccc(F)cc1)Nc1nc2ccc(F)cn2c1-c1ccc(C(F)(F)F)cc1 [Compound 214, 1-(6-fluoro-3-(4-(trifluoromethyl)phenyl)imidazo[1,2-a]pyridin-2-yl)-3-(4-fluorobenzyl)urea]",500 to 3000
5,"CC(C)(C)NC(=O)Nc1nc2ccc(F)cn2c1-c1ccc(C(F)(F)F)cc1 [Compound 215, 1-tert-butyl-3-(6-fluoro-3-(4-(trifluoromethyl)phenyl)imidazo[1,2-a]pyridin-2-yl)urea]",500 to 3000
6,"CC(C)(C)CC(=O)Nc1nc2cc(Cl)c(Cl)cn2c1-c1ccc(OC(F)(F)F)cc1 [Compound 216, N-(6,7-dichloro-3-(4-(trifluoromethoxy)phenyl)imidazo[1,2-a]pyridin-2-yl)-3,3-dimethylbutanamide]",< 500
7,"O=C(Cc1ccc(F)cc1)Nc1nc2cc(Cl)c(Cl)cn2c1-c1ccc(OC(F)(F)F)cc1 [Compound 217, N-(6,7-dichloro-3-(4-(trifluoromethoxy)phenyl)imidazo[1,2-a]pyridin-2-yl)-2-(4-fluorophenyl)acetamide]",500 to 3000
8,"CC(C)(C#N)CC(=O)Nc1nc2ccc(F)cn2c1-c1ccc(OC(F)(F)F)cc1 [Compound 218, 3-cyano-N-(6-fluoro-3-(4-(trifluoromethoxy)phenyl)imidazo[1,2-a]pyridin-2-yl)-3-methylbutanamide]",500 to 3000
9,CC(CC(=O)Nc1nc2cc(Cl)c(Cl)cn2c1-c1ccc(OC(F)(F)F)cc1)C(F)(F)F (centres unmarked) [Compound 219],500 to 3000
10,"O=C(CCC1CCCC1)Nc1nc2ccc(F)cn2c1-c1ccc(C(F)(F)F)cc1 [Compound 220, 3-cyclopentyl-N-(6-fluoro-3-(4-(trifluoromethyl)phenyl)imidazo[1,2-a]pyridin-2-yl)propanamide]",< 500
11,"CC(C)(C)CC(=O)Nc1nc2ccccn2c1-c1ccc(F)cc1 [Compound 221, N-(3(4-fluorophenyl)imidazo[1,2-a]pyridin-2-yl)-3,3-dimethylbutanamide]",500 to 3000
12,"O=C(CC1CCCC1)Nc1nc2ccccn2c1-c1ccc(F)cc1 [Compound 222, 2-cyclopentyl-N-(3-(4-fluorophenyl)imidazo[1,2-a]pyridin-2-yl)acetamide]",500 to 3000
13,"CC(C)(C)CC(=O)Nc1nc2ccccn2c1-c1ccc(C(F)(F)F)cc1 [Compound 223, 3,3-dimethyl-N-(3-(4-(trifluoromethyl)phenyl)imidazo[1,2-a]pyridin-2-yl)butanamide]",< 500
14,"O=C(CC1CCCC1)Nc1nc2ccccn2c1-c1ccc(C(F)(F)F)cc1 [Compound 224, 2-cyclopentyl-N-(3-(4-(trifluoromethyl)phenyl)imidazo[1,2-a]pyridin-2-yl)acetamide]",< 500
15,"O=C(CC1CCCC1)Nc1nc2ccccn2c1-c1ccc(OC(F)(F)F)cc1 [Compound 226, 2-cyclopentyl-N-(3-(4-(trifluoromethoxy)phenyl)imidazo[1,2-a]pyridin-2-yl)acetamide]",< 500
16,"CC(C)(C)CC(=O)Nc1nc2ccc(F)cn2c1-c1cc(F)cc(F)c1 [Compound 227, N-(3-(3,5-difluorophenyl)-6-fluoroimidazo[1,2-a]pyridin-2-yl)-3,3-dimethylbutanamide]",< 500
17,"O=C(Cc1ccccc1)Nc1nc2ccc(F)cn2c1-c1cc(F)cc(F)c1 [Compound 228, N-(3-(3,5-difluorophenyl)-6-fluoroimidazo[1,2-a]pyridin-2-yl)-2-phenylacetamide]",< 500
18,"O=C(Cc1ccc(F)cc1)Nc1nc2ccc(F)cn2c1-c1cc(F)cc(F)c1 [Compound 229, N-(3-(3,5-difluorophenyl)-6-fluoroimidazo[1,2-a]pyridin-2-yl)-2-(4-fluorophenyl)acetamide]",< 500
19,"CC(CC(=O)Nc1nc2ccc(F)cn2c1-c1cc(F)cc(F)c1)C(F)(F)F (centres unmarked) [Compound 230, N-(3-(3,5-difluorophenyl)-6-fluoroimidazo[1,2-a]pyridin-2-yl)-4,4,4-trifluoro-3-methylbutanamide]",500 to 3000

row,SMILES,EC50 [nM]
1,"O=C(COc1ccccc1)Nc1nc2ccc(F)cn2c1-c1ccc(OC(F)(F)F)cc1 [Compound 231, N-(6-fluoro-3-(4-(trifluoromethoxy)phenyl)imidazo[1,2-a]pyridin-2-yl)-2-phenoxyacetamide]",3000 to 10000
2,"CC(Oc1ccccc1)C(=O)Nc1nc2ccc(F)cn2c1-c1ccc(OC(F)(F)F)cc1 (centres unmarked) [Compound 232, N-(6-fluoro-3-(4-(trifluoromethoxy)phenyl)imidazo[1,2-a]pyridin-2-yl)-2-phenoxypropanamide]",3000 to 10000
3,"CC(C)(C)CC(=O)Nc1nc2cc(Cl)c(Cl)cn2c1-c1ccc(C(F)(F)F)cc1 [Compound 233, N-(6,7-dichloro-3-(4-(trifluoromethyl)phenyl)imidazo[1,2-a]pyridin-2-yl)-3,3-dimethylbutanamide]",< 500
4,"CC(C(=O)Nc1nc2ccc(F)cn2c1-c1ccc(C(F)(F)F)cc1)C(C)(C)C (centres unmarked) [Compound 234, N-(6-fluoro-3-(4-(trifluoromethyl)phenyl)imidazo[1,2-a]pyridin-2-yl)-2,3,3-trimethylbutanamide]",< 500
5,"CC(C(=O)Nc1nc2ccc(F)cn2c1-c1ccc(OC(F)(F)F)cc1)C(C)(C)C (centres unmarked) [Compound 235, N-(6-fluoro-3-(4-(trifluoromethoxy)phenyl)imidazo[1,2-a]pyridin-2-yl)-2,3,3-trimethylbutanamide]",< 500
6,"O=C(Cc1ccc(F)cc1)Nc1nc2cc(Cl)c(Cl)cn2c1-c1ccc(C(F)(F)F)cc1 [Compound 236, N-(6,7-dichloro-3-(4-(trifluoromethyl)phenyl)imidazo[1,2-a]pyridin-2-yl)-2-(4-fluorophenyl)acetamide]",< 500
7,"O=C(COCc1ccccc1)Nc1nc2ccc(F)cn2c1-c1ccc(OC(F)(F)F)cc1 [Compound 237, 2-(benzyloxy)-N-(6-fluoro-3-(4-(trifluoromethoxy)phenyl)imidazo[1,2-a]pyridin-2-yl)acetamide]",3000 to 10000
8,"O=C(Cc1ccc(Cl)cc1)Nc1nc2ccc(F)cn2c1-c1ccc(OC(F)(F)F)cc1 [Compound 238, 2-(4-chlorophenyl)-N-(6-fluoro-3-(4-(trifluoromethoxy)phenyl)imidazo[1,2-a]pyridin-2-yl)acetamide]",< 500
9,"O=C(Cc1cccc(F)c1)Nc1nc2ccc(F)cn2c1-c1ccc(OC(F)(F)F)cc1 [Compound 240, N-(6-fluoro-3-(4-(trifluoromethoxy)phenyl)imidazo[1,2-a]pyridin-2-yl)-2-(3-fluorophenyl)acetamide]",< 500
10,"O=C(Cc1ccc(F)c(F)c1)Nc1nc2ccc(F)cn2c1-c1ccc(OC(F)(F)F)cc1 [Compound 241, 2-(3,4-difluorophenyl)-N-(6-fluoro-3-(4-(trifluoromethoxy)phenyl)imidazo[1,2-a]pyridin-2-yl)acetamide]",< 500
11,"O=C(Cc1cc(F)cc(F)c1)Nc1nc2ccc(F)cn2c1-c1ccc(OC(F)(F)F)cc1 [Compound 242, 2-(3,5-difluorophenyl)-N-(6-fluoro-3-(4-(trifluoromethoxy)phenyl)imidazo[1,2-a]pyridin-2-yl)acetamide]",< 500
12,"O=C(Nc1nc2ccc(F)cn2c1-c1ccc(OC(F)(F)F)cc1)[C@H]1CCCO1 [Compound 243, (R)—N-(6-fluoro-3-(4-(trifluoromethoxy)phenyl)imidazo[1,2-a]pyridin-2-yl)tetrahydrofuran-2-carboxamide]",3000 to 10000
13,"O=C(Nc1nc2ccc(F)cn2c1-c1ccc(OC(F)(F)F)cc1)[C@@H]1CCCO1 [Compound 244, (S)—N-(6-fluoro-3-(4-(trifluoromethoxy)phenyl)imidazo[1,2-a]pyridin-2-yl)tetrahydrofuran-2-carboxamide]",3000 to 10000
14,"COc1ccn2c(-c3ccc(C(F)(F)F)cc3)c(NC(=O)CC(C)(C)C)nc2c1 [Compound 245, N-(7-methoxy-3-(4-(trifluoromethyl)phenyl)imidazo[1,2-a]pyridin-2-yl)-3,3-dimethylbutanamide]",500 to 3000
15,"COc1ccn2c(-c3ccc(C(F)(F)F)cc3)c(NC(=O)Cc3ccccc3)nc2c1 [Compound 246, N-(7-methoxy-3-(4-(trifluoromethyl)phenyl)imidazo[1,2-a]pyridin-2-yl)-2-phenylacetamide]",500 to 3000
16,"O=C(COc1ccc(Cl)cc1Cl)Nc1nc2ccc(F)cn2c1-c1ccc(OC(F)(F)F)cc1 [Compound 247, 2-(2,4-dichlorophenoxy)-N-(6-fluoro-3-(4-(trifluoromethoxy)phenyl)imidazo[1,2-a]pyridin-2-yl)acetamide]",3000 to 10000
17,"O=C(Nc1nc2ccc(F)cn2c1-c1ccc(OC(F)(F)F)cc1)C1CCOC1 (centres unmarked) [Compound 248, N-(6-fluoro-3-(4-(trifluoromethoxy)phenyl)imidazo[1,2-a]pyridin-2-yl)tetrahydrofuran-3-carboxamide]",3000 to 10000
18,"CC(C)C(C)C(=O)Nc1nc2ccc(F)cn2c1-c1ccc(OC(F)(F)F)cc1 (centres unmarked) [Compound 249, N-(6-fluoro-3-(4-(trifluoromethoxy)phenyl)imidazo[1,2-a]pyridin-2-yl)-2,3-dimethylbutanamide]",< 500
19,"O=C(CCOc1ccc(F)cc1)Nc1nc2ccc(F)cn2c1-c1ccc(OC(F)(F)F)cc1 [Compound 250, N-(6-fluoro-3-(4-(trifluoromethoxy)phenyl)imidazo[1,2-a]pyridin-2-yl)-3-(4-fluorophenoxy)propanamide]",500 to 3000
